Source: patent US20180105793A1, “DEVICE WITH MULTIPLE MICROENVIRONMENTS AND METHODS THEREOF” (WASHINGTON UNIVERSITY, priority 2016, published 2018)
“Also recorded” adds a separate entry of the source.

What was measured:
[1] = system: MCF10A cells; assay: Collective cell migration assay on modular polyacrylamide (mPA) dual-stiffness substrate; assay type: cell-based, Human
Procedure: Human mammary epithelial non-tumorigenic MCF10A cells were cultured in DMEM-F12 (GE Healthcare Life Sciences), supplemented with 5% horse serum (Invitrogen), 20 ng/mL epidermal growth factor (EGF, Miltenyi Biotec Inc), […] hydrocortisone (Sigma-Aldrich), 100 ng/mL cholera toxin (Sigma-Aldrich), 10 μg/mL insulin (Sigma-Aldrich), and 1% (v/v) penicillin-streptomycin (Sigma-Aldrich). Tumorigenic mammary epithelial MCF7 cells were grown in DMEM (Sigma-Aldrich) containing 10% fetal bovine serum (FBS), 1% (v/v) penicillin-streptomycin (Sigma-Aldrich), and 1% non-essential amino acids (0.1 mM). Human epidermoid carcinoma A431 cells were grown in DMEM (Sigma-Aldrich) containing 10% fetal bovine serum (FBS), 1% (v/v) penicillin-streptomycin (Sigma-Aldrich), 1% sodium pyruvate (Sigma-Aldrich), 1% sodium bicarbonate (Sigma-Aldrich), and 1% non-essential amino acids (0.1 mM). A PDMS stencil was designed and fabricated with a rectangular opening in the center, restricting the culture of epithelial monolayer within the central module (primary ECM) of mPA substrate (see e.g., FIG. 13A). PDMS stencils were air-dried, cleaned with 70% ethanol, and sterilized under UV light for 2 h. Afterwards, stencils were passivated overnight, with a sterile solution of 1% Pluronic and 1% Bovine serum albumin (BSA) in Phosphate buffered saline (PBS) to avoid cell adhesion, and carefully positioned on the PA gels. Cell suspension with 2×10^4 cells was dispensed into the PDMS reservoir covering the primary ECM region and left to grow for a prescribed duration of priming (1, 2, or 3 days) at 37° C. in a 5% CO2 humidified incubator. After this incubation period, the PDMS stencil was lifted off to allow cell sheet to migrate into the adjoining secondary ECM. Additional media was added to each well. For proliferation inhibition experiments, cells were treated with 2 mM thymidine (Sigma-Aldrich) after at least 6 h of cell seeding, to allow adequate attachment of cells to the substrate. For calcium chelation experiments, cells were incubated with 4 mM of EGTA (Sigma-Aldrich) after 3-day priming. […] Subsequently, coordinates of the leading edge were imported into a custom-made program in MATLAB and its advancement was calculated by averaging the distance of each point on the leading edge from the primary-secondary ECM interface. […] Cell migration tracks were subsequently analyzed to obtain migration speed and velocity angle distribution. Migration speed was calculated as a ratio between the sum of distances traveled by the cell between each time point and the total time. For each time interval, the angle between instantaneous velocity vector and the x axis was calculated and plotted the angle distribution for the entire migration tracking period.

[2] = system: MCF10A cells; assay: Immunofluorescent staining for E-cadherin (cell-cell junctions); assay type: cell-based, Human; conditions: 4 mM EGTA vs untreated

O=C(O)CN(CCOCCOCCN(CC(=O)O)CC(=O)O)CC(=O)O [EGTA]
memory-dependent migration of the leading edge ([1]; MCF10A monolayer, 4 mM EGTA after 3-day priming): preserved | cell-cell communication / cell-cell junctions (E-cadherin images) [2]: disrupts cell-cell communication; also recorded: dysfunctional cell-cell junctions

Cc1cn([C@H]2C[C@H](O)[C@@H](CO)O2)c(=O)[nH]c1=O [thymidine]
trend of mechanical memory-dependent migration ([1]; MCF10A monolayer, 2 mM thymidine (proliferation inhibition)): held true | cell migration speeds (leading edge) ([1]; MCF10A monolayer, 2 mM thymidine (proliferation inhibition), secondary ECM after priming, vs untreated cells): increased | cell spreading (spreading area of individual cells in the secondary ECM) ([1]; MCF10A, 2 mM thymidine, with vs without proliferation inhibition): increased spreading
